Results on three compounds are retold here after patent US9763445B2, “Safened herbicidal compositions comprising a pyridine carboxylic acid herbicide” (Dow AgroSciences, LLC, priority 2014, dated 2017).

Like-named read-outs stand apart in the source and are kept apart here.

The test system of data set [1] is kochia (KCHSC). The data set is described as follows: Postemergence greenhouse trial, % visual injury on kochia. It counts as in vivo, Kochia scoparia. The conditions noted are these: Bassia scoparia, post-emergence, KCHSC, read-out: % visual injury, Ob; for pest or weed control at 4.38 g/ha: compound 4.380 g/ha. The method in brief: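 Herbicide rates g ae/ha, safener (cloquintocet-mexyl) rates g ai/ha; spray carrier 1.5% v/v crop oil concentrate, 187 L/ha, 2nd–3rd leaf stage. Rating: visual % injury at 20-22 d.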

Data set [2] deals with winter rape (BRSNW). Put plainly: Postemergence greenhouse trial, % visual injury on winter rape. It counts as in vivo, Brassica napus. The settings on record: Brassica napus, post-emergence, BRSNW, read-out: % visual injury, Ob. The essentials:
(§1)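 Plants at second or third true leaf stage, greenhouse-grown (14 h photoperiod, ~23/22° C.), sprayed postemergence with compounds alone or with safener cloquintocet-mexyl in 1.5% v/v Agri-dex crop oil at 187 L/ha. Visual injury scored 0–100% versus solvent-blank controls after 20-22 d; expected mixture effects by Colby's equation.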

Data set [3] has as its system thistle (CIRAR). Put plainly: Postemergence greenhouse trial, % visual injury on thistle. It counts as in vivo, Cirsium arvense. The settings on record: Cirsium arvense, post-emergence, CIRAR, read-out: % visual injury, Ob. The essentials: as §1
Data set [4] concerns spring barley (HORVS). Put plainly: Postemergence greenhouse trial, % visual injury on spring barley. It counts as in vivo, Hordeum vulgare. The conditions noted are these: HORVS. The essentials: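 Greenhouse crops at second to third true leaf stage sprayed postemergence at 187 L/ha with herbicide (g ae/ha) plus safener (g ai/ha) in acetone/DMSO diluted into 1.5% v/v Agri-dex. Injury scored visually versus solvent-blank controls after 20-22 d, 0 (none) to 100% (complete kill); expected mixture effects by Colby's equation.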

Data set [5] relates to pigweed (AMARE). The data set is described as follows: Postemergence greenhouse trial, % visual injury on pigweed. It counts as in vivo, Amaranthus retroflexus. The conditions noted are these: Amaranthus retroflexus, post-emergence, AMARE, applied alone, read-out: % visual injury, Ob. The essentials:
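Postemergence greenhouse spray (187 L/ha, 1.5% v/v Agri-dex in water, acetone/DMSO stocks) on plants at second–third true leaf stage, ~23/22 °C, 14 h photoperiod; herbicides in g ae/ha, safener cloquintocet-mexyl in g ai/ha. Visual injury 0–100% versus solvent-blank controls after 20–22 d; Colby's equation gave expected mixture effects.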

For data set [6], the system named is bird's-eye speedwell (VERPE). Put plainly: Postemergence greenhouse trial, % visual injury on bird's-eye speedwell. Format: in vivo, Veronica persica. The conditions noted are these: VERPE, CQC-m 0. As for the experimental part:
(§2) Seeds of the desired test plant species were planted in Sun Gro MetroMix® 306 planting mixture, which typically has a pH of 6.0 to 6.8 and an organic matter content of about 30 percent, in plastic pots with a surface area of 103.2 square centimeters (cm^2). When required to ensure good germination and healthy plants, a fungicide treatment and/or other chemical or physical treatment was applied. The plants were grown for 7-36 days (d) in a greenhouse with an approximate 14-hour (h) photoperiod which was maintained at about 23° C. during the day and 22° C. during the night. Nutrients and water were added on a regular basis and supplemental lighting was provided with overhead metal halide 1000-Watt lamps as necessary. The plants were employed for testing when they reached the second or third true leaf stage.
(§3) Weighed amounts of technical material were dissolved in a volume of 97:3 volume per volume (v/v) acetone/dimethyl sulfoxide (DMSO) to stock solutions. […] The concentrated stock solutions were diluted with an aqueous mixture of 1.5% v/v of Agri-dex crop oil concentrate to provide the appropriate application rates. Compound requirements are based upon a 12 milliliter (mL) application volume at a rate of 187 liters per hectare (L/ha). Stocks solutions of the safeners were prepared following the same procedure. Spray solutions of the safeners and experimental compound mixtures were prepared by adding the stock solutions to the appropriate amount of dilution solution to form a 12 mL spray solution in two-way combinations. Formulated compounds were applied to the plant material with an overhead Mandel track sprayer equipped with 8002E nozzles calibrated to deliver 187 L/ha over an application area of 0.503 square meters (m^2) at a spray height of 18 inches (43 centimeters (cm)) above average plant canopy. Control plants were sprayed in the same manner with the solvent blank. All herbicide application (component a) rates are in g ae/ha and all safener (component b) rates are in g ai/ha.
(§4) The treated plants and control plants were placed in a greenhouse as described above and watered by sub-irrigation to prevent wash-off of the test compounds. After 20-22 d, the condition of the test plants as compared with that of the control plants was determined visually and scored on a scale of 0 to 100 percent where 0 corresponds to no injury and 100 corresponds to complete kill. […] Colby's equation was used to determine the herbicidal effects expected from the mixtures. […]

Data set [7] concerns purple deadnettle (LAMPU). Put plainly: Postemergence greenhouse trial, % visual injury on purple deadnettle. It counts as in vivo, Lamium purpureum. The conditions noted are these: LAMPU, CQC-m 0. The protocol:
as §2, §3, §4

For the compound `Nc1c(F)c(-c2ccc3scnc3c2)nc(C(=O)O)c1Cl` [compound 17], the pest or weed control at 4.375 g/ha in data set [1] (4.375 g/ha, applied alone) worked out at 85%; in data set [3] (4.375 g/ha, applied alone) it was 0%. Also, the pest or weed control at 8.75 g/ha was found to be 90% in data set [1] (8.75 g/ha, applied alone) and 0% in data set [3] (8.75 g/ha, applied alone). For the same compound, the pest or weed control at 17.5 g/ha came to 95% in data set [1] (17.5 g/ha, applied alone); 10% in data set [3] (17.5 g/ha, applied alone); 100% in data set [5] (17.5 g/ha). In addition, the pest or weed control at 35 g/ha in data set [1] (35 g/ha, applied alone) worked out at 100%; in data set [3] (35 g/ha, applied alone), 20%; in data set [5] (35 g/ha) it was 100%. In addition, the pest or weed control at 70 g/ha in data set [1] (70 g/ha, applied alone) amounted to 100%; in data set [3] (70 g/ha, applied alone), 20%. Also, in data set [2] (4.375 g/ha, applied alone), the plant injury at 4.375 g/ha amounted to 60%. The plant injury at 8.75 g/ha in data set [2] (8.75 g/ha, applied alone) was determined as 90%. The plant injury at 17.5 g/ha in data set [2] (17.5 g/ha, applied alone) stood at 95%. Moreover, the plant injury at 35 g/ha in data set [2] (35 g/ha, applied alone) turned out to be 95%. Also, the plant injury at 70 g/ha in data set [2] (70 g/ha, applied alone) came to 97%. Besides, the “% visual injury, Ob” value was 0% in data set [4] (4.375 g/ha, applied alone); 15% in data set [4] (8.75 g/ha, applied alone); 30% in data set [4] (17.5 g/ha, applied alone); 40% in data set [4] (35 g/ha, applied alone); 45% in data set [4] (70 g/ha, applied alone).

In the case of `CO/C=N/c1c(F)c(-c2ccc3cc[nH]c3c2F)nc(C(=O)OC)c1Cl` [compound 10], the pest or weed control at 4.38 g/ha in data set [1] (CQC-m 0) was determined as 80%; in data set [3] (compound 4.380 g/ha, CQC-m 0), 30%. For the same compound, the pest or weed control at 8.75 g/ha was determined as 80% in data set [1] (compound 8.75 g/ha, CQC-m 0) and 40% in data set [3] (compound 8.75 g/ha, CQC-m 0). Moreover, the pest or weed control at 17.5 g/ha in data set [1] (compound 17.5 g/ha, CQC-m 0) was found to be 100%; in data set [3] (compound 17.5 g/ha, CQC-m 0), 60%. Also, the pest or weed control at 35 g/ha in data set [1] (compound 35 g/ha, CQC-m 0) was 100%; in data set [3] (compound 35 g/ha, CQC-m 0), 85%. In addition, the pest or weed control at 70 g/ha worked out at 100% in data set [1] (compound 70 g/ha, CQC-m 0) and 100% in data set [3] (compound 70 g/ha, CQC-m 0). Besides, the plant injury at 4.38 g/ha in data set [2] (compound 4.380 g/ha, CQC-m 0) amounted to 85%. Also, in data set [2] (compound 8.75 g/ha, CQC-m 0), the plant injury at 8.75 g/ha was found to be 95%. In addition, the plant injury at 17.5 g/ha in data set [2] (compound 17.5 g/ha, CQC-m 0) came to 100%. For the same compound, the plant injury at 35 g/ha in data set [2] (compound 35 g/ha, CQC-m 0) stood at 100%. Further, the plant injury at 70 g/ha in data set [2] (compound 70 g/ha, CQC-m 0) is 100%. For the same compound, the “% visual injury, Ob” value turned out to be 0% in data set [4] (compound 4.380 g/ha, CQC-m 0); 10% in data set [4] (compound 8.75 g/ha, CQC-m 0); 20% in data set [4] (compound 17.5 g/ha, CQC-m 0); 20% in data set [4] (compound 35 g/ha, CQC-m 0); 40% in data set [4] (compound 70 g/ha, CQC-m 0); 70% in data set [6] (compound 4.380 g/ha). The “% visual injury, Ob” value in data set [6] (compound 8.75 g/ha) was 85%; in data set [6] (compound 17.5 g/ha), 90%; in data set [6] (compound 35 g/ha), 100%; in data set [6] (compound 70 g/ha), 100%.

Consider `COC(=O)c1nc(-c2ccc3cc[nH]c3c2F)c(F)c(N)c1OC` [compound 12], for which, in data set [1] (CQC-m 0), the pest or weed control at 4.38 g/ha stood at 15%. Also, the pest or weed control at 8.75 g/ha in data set [1] (compound 8.75 g/ha, CQC-m 0) turned out to be 62%. Also, the pest or weed control at 17.5 g/ha in data set [1] (compound 17.5 g/ha, CQC-m 0) came to 82%. For the same compound, in data set [1] (compound 35 g/ha, CQC-m 0), the pest or weed control at 35 g/ha came out at 95%. Besides, the pest or weed control at 70 g/ha in data set [1] (compound 70 g/ha, CQC-m 0) came out at 95%. In addition, the “% visual injury, Ob” value was 18% in data set [4] (compound 4.380 g/ha, CQC-m 0); 23% in data set [4] (compound 8.75 g/ha, CQC-m 0); 37% in data set [4] (compound 17.5 g/ha, CQC-m 0); 47% in data set [4] (compound 35 g/ha, CQC-m 0); 60% in data set [4] (compound 70 g/ha, CQC-m 0); 60% in data set [7] (compound 4.380 g/ha). Besides, the “% visual injury, Ob” value in data set [7] (compound 8.75 g/ha) is recorded as 75%; in data set [7] (compound 17.5 g/ha), 80%; in data set [7] (compound 35 g/ha), 90%; in data set [7] (compound 70 g/ha), 97%.
